Data as given in patent publication US11332438B2, “Creatine prodrugs, compositions and methods of use thereof” (Ultragenyx Pharmaceutical Inc., priority 2017, dated 2022).

Legend:
[1] = Plasma stability, human plasma; type: in vitro ADME; conditions: 37 °C, read-out: Plasma Stability Human t1/2
Protocol: (§1) The stabilities of creatine prodrugs can be evaluated in one or more in vitro systems using a variety of preparations following methods known in the art. Experimental conditions useful for the in vitro studies are described in Table 1. Prodrug is added to each preparation in triplicate. […]
(§2) Protocol for plasma stability for early screen macrocycles (Method A):
(§3) Frozen plasma was thawed by placing at 37° C. quickly and centrifuged at 3,000 rpm for 8 minutes to remove clots. Then the supernatant was pipetted and pooled as the plasma to be used in the experiment. The plasma was placed on ice until used. The test compounds and reference compounds spiking solution was prepared as a 2.5 mM test compounds spiking solution A: Add 20 μL of 10 mM test compounds stock solution to 60 μL DMSO. 0.1 mM Spiking solution B was prepared: Add 40 μL of spiking solution A to 960 μL of […] Sodium phosphate buffer with 0.5% BSA. […] For 0-min, 400 μL of ACN containing IS was added to the wells of 0-min plate and then 90 μL of plasma was added. […] 50 μL of the supernatant was transferred from each well into a 96-well sample plate containing 120 μL of ultra pure water (Millipore, ZMQS50F01) and analyzed by LC/MS.
(§4) Protocol for plasma stability (Method B):
(§5) The frozen plasma was thawed in a 37° C. water bath and then, if needed, adjusted to pH=7.4 then preheated in a 37° C. incubator. The test article was dissolved in 10% DMSO/water and spiked into plasma pre-plated into 96 well plates at a final concentration of 1 μM. Discrete incubations were performed at 37° C. and included 5 time points: t=0, 2, 5, 15, and 30 min. Samples were then crashed with 4× volume, ice cold 20% water/80% acetonitrile and spun at 4000 g for 10 mins. The supernatant was dried down and reconstituted with water and analyzed by LC-MS/MS. The half life in minute was calculated.

[2] = Plasma stability, mouse plasma; type: in vitro ADME; conditions: 37 °C, read-out: Plasma Stability Mouse t1/2
Protocol: as §1, §2, §3, §4, §5

[3] = Liver microsome stability, human; type: in vitro ADME; conditions: liver microsomes, read-out: Microsome Stability Human t1/2
Protocol: as §1
(§6) Protocol for Microsomal Stability:
(§7) For reference compound, a 500 μM spiking solution was prepared: add 10 μL of 10 mM DMSO stock solution into 190 μL ACN. […] For test compound, a 5 mM spiking solution was prepared: add 10 μL of 10 mM DMSO stock solution into 10 μL ACN. […] NADPH stock solution (6 mM) was prepared by dissolving NADPH into buffer 0.1 M Potassium Phosphate buffer, 1.0 mM EDTA, pH 7.4. […] For 0-min, 135 μL of ACN containing IS was added to the wells of 0-min plate and then 15 μL of NADPH stock solution (6 mM) was added. 15 μL of NADPH stock solution (6 mM) was added to the samples designated as 0-, 5-, 10-, 20-, 30-min, 60-min; 15 μL of buffer 0.1 M Potassium Phosphate buffer, 1.0 mM EDTA, pH 7.4, was added to the samples designated as 60-min without NADPH. At 5-min, 10-min, 20-min, and 30-min, 60-min 135 μL of ACN containing IS was added to the wells of corresponding plates, respectively, to stop the reaction. […] 50 μL of the supernatant from each well was transferred into a 96-well sample plate containing 50 μL of ultra pure water (Millipore, ZMQS50FOI) and analyzed by LC/MS.

[4] = Liver microsome stability, mouse; type: in vitro ADME; conditions: liver microsomes, read-out: Microsome Stability Mouse t1/2
Protocol: as §1, §6, §7

[5] = Chemical stability in phosphate buffered saline (PBS); type: physicochemical; conditions: 50 μM prodrug
Protocol: (§8) Chemical stability of creatine prodrugs in phosphate buffered saline (PBS), simulated intestinal fluid (SIF) without pancreatin, simulated gastric fluid (SGF) without pepsin were determined by LC-UV, LC-CAD, LC-UV-CAD or LC-MS/MS as appropriate. Creatine prodrugs of the present disclosure (50 μM) were incubated at 37° C. according to described protocols and prodrug levels were compared between t=0, t=15, t=60, and t=120 mins by peak area ratio to determine the percentage remained at t=120 mins (2 h).
(§9) Protocol for PBS, SIF and SGF stability for screening:
(§10) Prodrugs (50 μM) were incubated in PBS, FaSSIF (Biorelevant) or FaSSGF (Biorelevant) at 37° C.

[6] = Chemical stability in simulated gastric fluid (SGF) without pepsin; type: physicochemical; conditions: 50 μM prodrug
Protocol: as §8, §9, §10

[7] = tested on: Phenocell CrT deficient neurons (iPSC-derived human neurons); assay: Creatine prodrug uptake and d3-creatine release in Phenocell CrT deficient neurons (Table 4B); type: cell-based; conditions: Study No. 3, 50 μM, 2 hours
Protocol: Human neurons were obtained by differentiation of iPSC-derived neural stem cells for 14 days. The iPSCs were obtained from Phenocell Corporation. Neurons were cultured and differentiated to Day 10 and then frozen in liquid nitrogen. Neurons were thawed and replated at 1×10^6 per well of viable cells on poly-ornithine/laminin coated plates in 2 ml medium per well. Differentiation in complete Neurol medium with 2 ng/ml FGF2 was carried out for 4 additional days with a complete medium change (90% of medium) on Day 12. Activin A (20 ng/ml final conc.) was spiked into the cultures on Day 11 and Day 13. […] In parallel, compounds were incubated in medium alone to assess chemical stability of parent prodrug and metabolites. At the end of the 2 hour incubation, supernatants were collected and frozen at −80 C. Neurons in 6 well plates were washed gently 3× with HBSS and frozen at −80° C. Cell lysates were obtained by addition of 130 μl/well 10 mM Tris pH 7.4 with complete Mini protease inhibitors and scraping of wells. Plates were kept on ice during processing. Lysates were homogenized by hand briefly with a green pestle in 1.5 ml centrifuge tubes and then vortexed at high speed for 5 seconds. Lysates were centrifuged at 13,000 g, 10 minutes, 4 C and supernatants (cytosol fraction) were transferred in a new tube. A crash solution constituted of 80% acetonitrile and 20% water with bucetin, d5-Cr (internal standard) was added at 4:1 volume to volume to 50 ul of all samples for a total volume of 250 μL. Then plate was spun at 4000 rpm, 10 minutes, […] Samples were transferred to a new plate and frozen at −80 C prior to analysis by LC-MS/MS (Table 4B).

SMILES	half-life ([1]; Table 2B) [h]	half-life ([2]; Table 2B) [h]	half-life at 10 μM ([3]; pH 7.4, Table 2B) [h]	half-life at 10 μM ([4]; pH 7.4, Table 2B) [h]	Chemical Stability PBS % T0 at 2 hours at 37 °C. ([5]; Table 2B) [%]	Chemical Stability SGF, no enzyme % T0 at 2 hours at 37 °C. ([6]; Table 2B) [%]	half-life ([1]; Table 2A) [h]	half-life ([2]; Table 2A) [h]	half-life at 10 μM ([3]; pH 7.4, Table 2A) [h]	half-life at 10 μM ([4]; pH 7.4, Table 2A) [h]	Chemical Stability PBS % T0 at 2 hours at 37 °C. ([5]; Table 2A) [%]	Chemical Stability SGF, no enzyme % T0 at 2 hours at 37 °C. ([6]; Table 2A) [%]	Prodrug concentration in the cell cytosol [7] [nmoles/mg protein]	d3-Creatine concentration in the cell cytosol [7]
[2H]C([2H])([2H])N(CC(=O)OC(C)(C)C(C)C)C(=N)NC(=O)CCCCCCCCCC [Compound 62]	> 3	1.27	< 0.0833	< 0.0833	62	103	–	–	–	–	–	–	–	–
[2H]C([2H])([2H])N(CC(=O)[O-])C(=N)NC(=O)CCCCCCCCCCCC.[Na+] [Compound 29]	–	–	–	–	–	–	> 3	> 3	0.983	1.83	64	91	–	–
[2H]C([2H])([2H])N(CC(=O)O)C(=N)NC(=O)CCCCCCC/C=C\CCCCCC [Compound 28]	–	–	–	–	–	–	> 3	> 3	1.5	1.4	51	99	–	–
[2H]C([2H])([2H])N1CC(=O)OC(CCC)CCCCCCCC(=O)NC1=N (centres unmarked) [Compound W, 5-imino-4-trideuteriomethyl-15-propyl-1-oxa-4,6-diazacyclopentadecane-2,7-dione]	–	–	–	–	–	–	–	–	–	–	–	–	0.44	BLOQ
[2H]C([2H])([2H])N(CC(=O)[O-])C(=N)NC(=O)CCCCCCCCCC/C=C\CCCCC.[Na+] [Compound 27]	–	–	–	–	–	–	> 3	> 3	0.233	0.167	67	96	–	–
[2H]C([2H])([2H])N(CCO)C(=N)NC(=O)CCCCCCCCCC [Compound 9]	–	–	–	–	–	–	> 3	0.55	< 0.0833	< 0.0833	0	99	–	–
[2H]C([2H])([2H])N(CC(=O)OC(C)(C)C(C)(C)O)C(=N)NC(=O)CCCCCC [Compound 63]	< 0.0833	< 0.0833	< 0.0833	< 0.0833	58	101	–	–	–	–	–	–	–	–
[2H]C([2H])([2H])N(CC(=O)O)C(=N)NC(=O)c1cccnc1 [Compound 21]	–	–	–	–	–	–	> 3	> 3	> 2.42	> 2.42	105	74	–	–
[2H]C([2H])([2H])N(CC(=O)[O-])C(=N)NC(=O)CCCCC/C=C\CCCCCCCCCC.[Na+] [Compound 26]	–	–	–	–	–	–	> 3	> 3	1.13	> 2.42	45	95	–	–
